From patent US20250090472A1, “LIPID NANOPARTICLE COMPOSITIONS AND USES THEREOF” (BEIJING JITAI PHARMACEUTICAL TECHNOLOGY CO., LTD., priority 2023, published 2025)

System: C57BL/6 mice
Experiment: In vivo bioluminescence assay of LNPs encapsulating luciferase mRNA (without permanently cationic lipid)
Conditions: intravenous single dose 0.5 mg/kg luciferase mRNA, 6 h after administration, group mean
Protocol: The delivery effect and safety of nanoparticles encapsulated with luciferase mRNA (Trilink, L-7202) in mice were evaluated. The test mice were SPF-grade C57BL/6 mice, female, 6-8 weeks old, weighing 18-22 g, and were purchased from SPF (Beijing) Biotechnology Co., Ltd. All animals were acclimatized for more than 7 days prior to the experiment, and had free access to food and water during the experiment. The conditions include alternating light and dark for 12/12 h, the indoor temperature of 20-26° C. and the humidity of 40-70%. The mice were randomly grouped. The lipid nanoparticles encapsulated with luciferase mRNA prepared above were injected into mice by intravenous administration at a single dose of 0.5 mg/kg mRNA, and the mice were subjected to in vivo bioluminescence assay using a Small Animal In Vivo Imaging System (IVIS LUMINA III, purchased from PerkinElmer) at 6 h after administration. The assay was performed as follows: D-luciferin solution was prepared in saline at a concentration of 15 mg/mL, and each mouse was given the substrate by intraperitoneal injection. At ten minutes after administration of the substrate, the mice were anesthetized in an anesthesia chamber with isoflurane at a concentration of 2.5%. The anesthetized mice were placed in IVIS for luminescent imaging. Data acquisition and analysis were performed on the concentrated distribution area of luminescence.
The in vivo delivery efficiency of lipid nanoparticle carriers was expressed as the mean values of fluorescence intensity and total photon count in different animals measured at 6 hours after administration of the lipid nanoparticle within the same subject group, as shown in Table 4. Higher values of fluorescence intensity and total photon count indicate higher in vivo delivery efficiency of this mRNA fragment by the lipid nanoparticles.

Going from `CCCCCCCCCOC(=O)C(C)(C)CCCCCC(CCCCCC(C)(C)C(=O)OCCCCCCCCC)OC(=O)CC1CCN(CCO)CC1` [Compound 113] to `CCCCCCCCCOC(=O)C(C)(C)CCCCCC(CCCCCC(C)(C)C(=O)OCC(CCCCC)CCCCCCC)OC(=O)CC1CCN(CCO)CC1` (centres unmarked) [Compound 114], the “Total photon count in vivo (Total Flux)” value falls from 3.59E+08 to 1.06E+08.

Compared with `CCCCCCCCN(CCCCCCCC)CCOC(=O)C(C)(C)CCCCCC(CCCCCC(C)(C)C(=O)OCCN(CCCCCCCC)CCCCCCCC)OC(=O)CCN(C)C` [Compound 15], `CCCCCCCCCCOC(=O)C(C)(C)CCCCCC(CCCCCC(C)(C)C(=O)OCCCCCCCCCC)OC(=O)CCN(C)C` [Compound 1] is higher in “Total photon count in vivo (Total Flux)” value: 4.89E+08 for the first, 6.43E+08 for the second.

Going from `CCCCCCCCCOC(=O)CC(C)(C)CCCCC(CCCCC(C)(C)CC(=O)OCCCCCCCCC)OC(=O)CCCN(C)C` [Compound 97] to `CC(C)CCCCCCCOC(=O)CCC(C)(C)CCCC(CCCC(C)(C)CCC(=O)OCCCCCCCC(C)C)OC(=O)CCCN(C)C` [Compound 127], the “Total photon count in vivo (Total Flux)” value rises from 3.37E+09 to 3.59E+10.

Going from `CCCCCCC#CCCOC(=O)C(C)(C)CCCCCC(CCCCCC(C)(C)C(=O)OCCC#CCCCCCC)OC(=O)CCCN(C)C` [Compound 24] to `CCCCCCCCCSC(=O)C(C)(C)CCCCCC(CCCCCC(C)(C)C(=O)OCC#CCCC(CCCC)CCCC)OC(=O)CCCN(C)C` (centres unmarked) [Compound 119], the “Total photon count in vivo (Total Flux)” value rises from 5.56E+09 to 3.25E+10.

First: CCCCCCCCCCOC(=O)C(C)(C)CCCCCC(CCCCCC(C)(C)C(=O)OCCCCCCCCCC)OC(=O)C1CCN(C)CC1 [Compound 99]
Second: CCCCCCCCCSC(=O)C(C)(C)CCCCCC(CCCCCC(C)(C)C(=O)SCCCCCCCCC)OC(=O)CC1CCN(CCO)CC1 [Compound 110]
The “Total photon count in vivo (Total Flux)” value of the first is higher: 5.30E+09 for the first, 2.06E+08 for the second.

For `CCCCC/C=C\C/C=C\CCCCCCCCC(CCCCCCCC/C=C\C/C=C\CCCCC)OC(=O)CCCN(C)C` [Dlin-MC3-DMA, reference compound], the “Total photon count in vivo (Total Flux)” value was 8.04E+09.
